According to patent US8680014B2, “Methods for improving fruit production and fruit quality” (Washington State University Research Foundation, priority 2010, dated 2014):
Entries after “also recorded” stand apart in the source; their conditions may differ. Marks after values point to notes of the source that are not given here.

Tests used:
‘Fuji’ apple trees = test: BABA at different bud development stages; branches in programmable freeze chamber five days later; assay type: in vivo, apple (Malus domestica); conditions: treated 5 days before cold exposure; all developmental stages, except for full opened flowers; compared to control
Protocol: BABA was also applied to ‘Fuji’ apple trees at different bud development stages. Five days later, treated and untreated (control) branches were collected and placed in a programmable freeze chamber. Flowers killed were evaluated as described above. BABA decreased the percentage of flowers killed as compared to control at all developmental stages, except for full opened flowers (FIG. 2).

[1] = test system: Sweet cherry cv. ‘Bing’ trees; test: BABA spray in the field; flower fate of limbs in programmable freeze chamber; fruit set, fruit size, leaf area, leaf chlorophyll on other limbs; assay type: in vivo, sweet cherry (Prunus avium)
Protocol: Sweet cherry cv. ‘Bing’ trees were sprayed in the field with BABA and the fate of flowers from randomly selected sample limbs placed in a programmable freeze chamber was evaluated. Random limbs were removed from the freeze chamber within 10 minutes of reaching selected air temperatures, and were left at room temperature for 1 hour. Pistil/ovary survival was then assessed visually on every flower. Flowers with healthy green stylar and ovary tissue were rated as live. Flowers with discolored (for example, brown) stylar or ovary tissues were rated as dead. Fruit set, fruit size, average leaf area, and leaf chlorophyll content index were evaluated on other limbs of the treated trees.

plum cv. ‘PP7524-7’ = test: BABA application in the spring 4-7 days prior to frost exposure; assay type: in vivo; conditions: application 4-7 days prior to frost; following spring frost damage
Excerpt: Finally, BABA application in the spring 4-7 days prior to frost exposure increased fruit set in plum cv. ‘PP7524-7’ following spring frost damage (FIG. 5).

[2] = test system: sweet cherry cultivar ‘Van’; test: Autumn application of BABA, natural frost damage the following spring; assay type: in vivo, sweet cherry (Prunus avium)
Excerpt: (§1) Application of BABA to sweet cherry cultivars ‘Bing,’ ‘Chelan,’ and ‘Van’ in autumn decreased the percentage of flowers killed after natural frost damage the following spring (FIG. 3). […] Bing after spring frost damage (FIG. 4).

[3] = test system: sweet cherry cultivar ‘Bing’; test: as above; assay type: in vivo, sweet cherry (Prunus avium)
Excerpt: as §1

[4] = test system: sweet cherry cultivar ‘Chelan’; test: as above; assay type: in vivo, sweet cherry (Prunus avium)
Excerpt: as §1

sweet cherry cv. ‘Bing’ = test: CPA applied at full bloom; fruit set and fruit size at harvest; assay type: in vivo, sweet cherry (Prunus avium)
Protocol: Plant growth regulators were applied to limbs of sweet cherry cv. ‘Bing’ at full bloom when essentially all flowers were open. Fruit set was recorded as a percent of available flowers from flower counts made prior to application and fruit counts made just prior to harvest. Fruit set in trees treated with 4-chlorophenoxyacetic acid (CPA) at 10 or 30 ppm was higher than untreated control in both small and large scale trials (FIG. 18). […] (Table 2).

[5] = test system: sweet cherry cultivar ‘8011-3’; test: as above; assay type: in vivo, sweet cherry (Prunus avium); conditions: 30 ppm CPA at full bloom
[6] = test system: sweet cherry cultivar ‘Tieton’; test: as above; assay type: in vivo, sweet cherry (Prunus avium); conditions: 30 ppm CPA at full bloom
[7] = test system: sweet cherry cv ‘Bing’ on ‘Gisela® 1’ rootstock; test: Experiment 1: limb trial of PCa and GAs alone or in combination, applied 30 days after anthesis; assay type: in vivo, sweet cherry (Prunus avium); conditions: for Firmness / Fruit diameter / Fruit weight / TSS: applied at 30 days after anthesis, PCa 150 mg/L, GAs 30 mg/L, at harvest
Protocol: (§2) A limb trial was conducted to evaluate effects of bioactive gibberellins (GA), prohexadione-calcium (PCa), or combinations applied before harvest on fruit quality of sweet cherry. The most efficacious treatments were utilized in a larger scale trial to investigate their effects on the whole tree scale and postharvest characteristics of fruit. Twelve-year-old sweet cherry cv ‘Bing’ on ‘Gisela® 1’ rootstock was selected for both experiments and trained to a central leader architecture. Both trials were carried out at Washington State University Roza farm, Prosser, Wash., USA (N 46.2°, W 119.7°).
Three limbs with uniform vigor were selected from each of 10 trees. Treatments were applied to the limbs randomly spread across ten trees at 30 days after anthesis, approximately coinciding with the onset of pit hardening (stage II of fruit development) in ‘Bing’. The experiment consisted of 10 treatments, including water (the untreated control) and PCa at 150 mg/L. Bioactive GA1, GA3, and GA4/7 (70:30 GA4:GA7) were applied as a foliar spray at 30 mg/L alone or in combination with PCa at 150 mg/L. In addition, the combination of GA3 and GA4/7 at 30 mg/L was applied, or in combination with PCa at 150 mg/L. PCa was the commercial product Apogee® (27.5% PCa; BASF Corp., Research Triangle Park, N.C.) and all bioactive GAs (purity >90%) were purchased from OlChemIm Ltd. (Olomouc, Czech Republic). Each treatment was made with a pressurized handgun sprayer to entire limbs, ceasing at the first runoff.
Twenty fruit per treatment were randomly selected and flagged for monitoring fruit growth by measuring fruit equatorial diameter and height weekly after treatment. All current-season shoots on treated limbs were measured weekly to investigate treatment effects on shoot growth. Harvest timing was determined as the day when the majority of fruit had achieved commercial maturity, based on exocarp color. At harvest, all fruit on treated limbs were harvested and transported to the laboratory for fruit quality analysis. Floral bud density on the treated limbs was assessed by counting all spurs and the number of reproductive buds per spur.
All fruit from each limb in Experiment 1 and sub-samples from Experiment 2 were weighed individually and fruit size distribution was calculated according to fruit weight. Color sorting was conducted manually according to the color comparators developed by CTIFL (Centre Technique Interprofessionnel des Fruit et Legumes, France), which categorize cherry color into 8 levels from Green, CTIFL 1 to CTIFL 7. Fruit number in each category was counted and color distribution was assessed. Subsequently, all fruit were analyzed for firmness and row size measurement with a FirmTech 2 (BioWorks, Inc, Wamego, Kans.) at room temperature. Then, 25 fruit were randomly selected and 5 groups of 5 fruit were mixed for soluble solids content, pH and titratable acidity measurement. Fruit soluble solids were measured using a digital refractometer (Atago, Japan). Approximately 0.5 mL of juice was dropped directly onto the surface of the refractometer and the measurement immediately taken. Juice pH and titratable acidity were measured with a Mettler DL12 Titrator (Mettler-Toledo, Columbus, Ohio).
All trials were established as randomized complete-block designs. All data were subjected to analysis of variance using the General Linear Models (GLM) program of the SAS statistical analysis package (SAS Institute, Cary, N.C.).

[8] = test system: sweet cherry cv ‘Bing’ on ‘Gisela® 1’ rootstock; test: Experiment 2: whole tree trial of PCa alone or with GA3 or GA4/7, applied 30 (FS) or 37 (SS) days after anthesis; fruit quality, storability, sensory analysis; assay type: in vivo, sweet cherry (Prunus avium)
Protocol: as §2
Experiment 2 included treatments at the whole tree level. Applications of GA3 or GA4/7 (70:30 GA4:GA7) were made to entire trees at 30 mg/L in combination with PCa at 150 mg/L. PCa (150 mg/L) alone was also applied and an untreated control treatment was included. To investigate the role of application timing of plant growth regulators, all treatments were applied at 30 (first spray (FS)) or 37 days after anthesis (second spray (SS)). In this experiment, 24 trees in the same orchard as those in Experiment 1 were selected for whole tree treatment and assigned randomly into one of two 12-tree groups for the timing study. Treatments were then randomly assigned to each of three trees per application timing. Treatments were applied to entire trees by pressurized handgun sprayer to the point of first runoff. All applications were completed in the morning between 0800 and 1100, and applied on days with little or no wind. To prevent spray drift onto neighboring experimental units, all the trees were selected in the same row and 2-3 trees were selected as ‘border’ trees between experimental units.
Twenty fruit per treatment were marked for weekly fruit size measurement, and six current terminal shoots were selected for monitoring shoot growth weekly after treatment. […] Whole tree yield was determined at harvest, in the field, with a portable digital scale. The effect of treatment on total yield per tree (kg tree^−1) and the yield of large fruit (29.8 mm+) (kg tree^−1) was assessed. […]
All fruit from each limb in Experiment 1 and sub-samples from Experiment 2 were weighed individually and fruit size distribution was calculated according to fruit weight. […] Fruit number in each category was counted and color distribution was assessed. Subsequently, all fruit were analyzed for firmness and row size measurement with a FirmTech 2 (BioWorks, Inc, Wamego, Kans.) at room temperature. […] Fruit soluble solids were measured using a digital refractometer (Atago, Japan). […] Juice pH and titratable acidity were measured with a Mettler DL12 Titrator (Mettler-Toledo, Columbus, Ohio). […]

[9] = BABA at both concentrations (100 and 500 ppm), compared to control

Question: How did the “percentage of flowers killed” value (‘Fuji’ apple trees) turn out when `CC(N)CC(=O)O` (racemic) [BABA, DL-β-aminobutyric acid] was run?
Answer: The value was “decreased”.

Question: What about the “percentage of flowers killed” value ([1]; 100 ppm BABA, −3.5° C. and −4.5° C., compared to control (untreated) trees) of the same molecule?
Answer: Its value is “decreased”.

Question: And the “percentage of flowers killed” value ([1]; 500 ppm BABA, compared to control)?
Answer: The value was “decreased”.

Question: And the average leaf area [1, 9]?
Answer: The average leaf area was “increased”.

Question: And the fruit set [1, 9]?
Answer: The fruit set was “increased”.

Question: What about the fruit size [1, 9] of the same molecule?
Answer: The fruit size was “increased”.

Question: And the “leaf chlorophyll content index” value [1, 9]?
Answer: Its value is “increased”.

Question: What about the fruit set (plum cv. ‘PP7524-7’) of the same molecule?
Answer: Its fruit set is “increased”.

Question: What about the “percentage of flowers killed” value [2] of the same molecule?
Answer: The value was “decreased”.

Question: What about the pistil survival ([3]; after spring frost damage) of the same molecule?
Answer: The pistil survival was “increased”.

Question: What about the “percentage of flowers killed” value ([3]; natural frost the following spring) of the same molecule?
Answer: Its value is “decreased”.

Question: And the “percentage of flowers killed” value [4]?
Answer: The value was “decreased”.

Question: For `O=C(O)COc1ccc(Cl)cc1` [4-CPA, 4-chlorophenoxyacetic acid], which “fruit set compared with untreated control” value (sweet cherry cv. ‘Bing’; CPA at 10 or 30 ppm at full bloom, small and large scale trials (FIG. 18)) is on record?
Answer: The value was “higher”.

Question: And the “Fruit Set (%)” value (sweet cherry cv. ‘Bing’; ‘Bing’, 30 ppm CPA applied to the flowers at full bloom, untreated 30.0)?
Answer: The value was 58.0%.

Question: And the “Average fruit size” value (sweet cherry cv. ‘Bing’; ‘Bing’, 30 ppm CPA at full bloom, at harvest, untreated 7.3)?
Answer: Its value is 8.4 g.

Question: What about the “Average fruit size” value ([5]; at harvest, untreated 10.5) of the same molecule?
Answer: The value was 13.6 g.

Question: What about the “Fruit Set (%)” value ([5]; untreated 7.0) of the same molecule?
Answer: Its value is 16.0%.

Question: And the “Average fruit size” value ([6]; at harvest, untreated 7.2)?
Answer: The value was 8.6 g.

Question: What about the “Fruit Set (%)” value ([6]; untreated 26.0) of the same molecule?
Answer: Its value is 35.0%.

Question: Which results are given for `C=C1C[C@]23C[C@@]1(O)CC[C@H]2[C@@]12CC[C@H](O)[C@@](C)(C(=O)O1)[C@H]2[C@@H]3C(=O)O` [GA1, gibberellin A1]?
Answer: Firmness [7]: 280.2^c g/mm; Fruit diameter [7]: 26.52^bc mm; Fruit weight [7]: 8.44^bc g; TSS [7]: 20.84^b Brix

Question: Which results are given for `C=C1C[C@]23C[C@@]1(O)CC[C@H]2[C@@]12C=C[C@H](O)[C@@](C)(C(=O)O1)[C@H]2[C@@H]3C(=O)O` [GA3, gibberellin A3]?
Answer: Firmness [7]: 316.9^a g/mm; Fruit diameter [7]: 26.49^bc mm; Fruit weight [7]: 8.23^cd g; TSS [7]: 22.23^a Brix

Question: Which results are given for `CCC(=O)C1=C(O)CC(C(=O)O)CC1=O` (stereo not shown) [PCa, calcium 3-oxido-4-propionyl-5-oxo-cyclohexene carboxylate]?
Answer: fruit categorized as healthy after storage ([8]; 30 days at 4° C., spray timing not stated, 5% for untreated trees): < 10%; increase in fruit in the ≧10 g category compared to the control ([8]; both first and second spray timings): 15%; percentage of fruit with green and turgid pedicels after storage ([8]; first spray treatments, control 30%): 24%; shoot growth / vegetative extension growth ([8]; single spray, irrespective of timing, compared with the control and PCa+GAs): reduced; also recorded: reductions; Firmness [7]: 278.3^c g/mm; Fruit diameter [7]: 24.75^f mm; Fruit weight [7]: 7.26^f g; TSS [7]: 19.18^cd Brix; effect on fruit weight / fruit size compared with the untreated control ([7]; limb trial, single application at 30 days after anthesis): no positive effect; length of current season extension shoots relative to untreated ([7]; single application, after terminal bud set (FIG. 8)): less than half the length
